Data set [1] deals with HCMV strain AD169. Put plainly: HCMV primary assay (CPE), strain AD169, HFF cells. Type of data set: cell-based, Human Cytomegalovirus. Here is the method:
The antiviral activity of the compound against HCMV in the described Primary assay was measured by treating primary Human foreskin fibroblast (HFF) cells infected with HCMV with a range of compound concentrations—description of methods for this assay can be found in section 1.3.2.1. […] . Additional tested assay parameters in this Primary assay can be found in Table 3.2.1 and include EC90, S150, and S190 values—descriptions of those data points can be found in section 3.2.1.

A short description of data set [2]: Cytotoxicity concurrent with HCMV AD169 primary assay. The class given is cell-based, human. Conditions: human.
The subject of data set [3] is VZV strain Ellen. Briefly: VZV primary assay, strain Ellen, HFF cells. Type of data set: cell-based, Varicella Zoster Virus. Here is the method:
(§1) Assays were performed in monolayers as described. […] Toxicity was measured using CTG as above. […] Toxicity was measured using CTG as above.
(§2) Monolayers of HFF cells were prepared in six-well plates and incubated at 37° C. for 2 d to allow the cells to reach confluency. Media was then aspirated from the wells and 0.2 mL of virus-containing solution was added to each of three wells to yield 20-30 plaques in each well. The virus was allowed to adsorb to the cells for 1 h and the plates were agitated every 15 minutes. Compounds were diluted in assay media consisting of MEM with Earl's salts supplemented with 2% FBS, glutamine, penicillin, and gentamycin. Diluted drug was added to duplicate wells and the plates were incubated for various times, depending on the virus used. For HSV-1 and -2, the monolayers were then stained with 1% crystal violet in 20% methanol and the unbound dye removed by washing with dH20. For all other assays, the cell monolayer was stained with 1% Neutral Red solution for 4-6 h then the stain was aspirated and the cells were washed with PBS.

A short description of data set [4]: Cytotoxicity concurrent with VZV Ellen primary assay. As to conditions: human. Type of data set: cell-based. Here is the method: as §1
Data set [5] has as its system HSV1 strain E-377. Put plainly: HSV1 primary assay, strain E-377, HFF cells. The class given is cell-based, Herpes Simplex Virus 1. Here is the method:
as §1, §2

The nature of data set [6]: Cytotoxicity concurrent with HSV1 E-377 primary assay. The class given is cell-based. Conditions: human. Here is the method: as §1
Data set [7] relates to HSV2 strain G. Put plainly: HSV2 primary assay, strain G, HFF cells. Type of data set: cell-based, herpes simplex virus 2. Here is the method: as §1, §2
A short description of data set [8]: Cytotoxicity concurrent with HSV2 primary assay. The class given is cell-based. Conditions: human. Here is the method: as §1
The test system of data set [9] is Epstein-Barr virus Akata strain. Put plainly: Epstein-Barr primary assay, Akata strain, Akata cells. The class given is cell-based.
For data set [10], the system named is Adenovirus Adenoid75 strain. Put plainly: Adenovirus primary assay, Adenoid75 strain, HFF cells. Type of data set: cell-based. As to conditions: unidentified adenovirus; for EC90: read-out: EC90.
A short description of data set [11]: Cytotoxicity concurrent with Adenovirus primary assay. Type of data set: cell-based. As to conditions: human.
Data set [12] concerns Adenovirus Adenoid75 strain. Briefly: Adenovirus secondary assay (yield reduction), Adenoid75 strain, HFF cells. The class given is cell-based. As to conditions: unidentified adenovirus. Here is the method:
(§3) Monolayers of HFF cells were prepared in 96-well plates and incubated at 37° C. for 1 d to allow the cells to reach confluency. Media was then aspirated from the wells and cells infected at a high MOI. At 1 h following infection, the inocula were removed and the monolayers rinsed with fresh media. […] Drug dilutions were added to the wells and the plates were incubated for various times, depending on the virus used and represents a single replication cycle for the virus. A duplicate set of dilutions were also performed but remained uninfected to serve as a cytotoxicity control and received equal compound exposure. Supernatants from each of the infected wells were subsequently titered using CTG in a TCID50 assay to quantify the progeny virus. For HCMV only, viral yield in the supernatants from the infected cells were titered using qPCR with HCMV primers [NT], and probe [NT].

A short description of data set [13]: Cytotoxicity concurrent with Adenovirus secondary assay. Type of data set: cell-based. Conditions: human, Adeno secondary assay, HFF cells. Here is the method:
as §3

Data set [14] is described as follows: Cytotoxicity concurrent with EBV primary assay. Conditions: human.
The subject of data set [15] is HFF cells. Put plainly: Cytotoxicity concurrent with HCMV AD169 primary assay. Type of data set: cell-based, human.
Data set [16] relates to HCMV strain GDGr K17 - resistant isolate. Put plainly: HCMV primary assay, resistant isolate GDGr K17, HFF cells. Type of data set: cell-based, Human Cytomegalovirus. As to conditions: Human betaherpesvirus 5, HFF. Here is the method:
as §1

In data set [17] the test system is Murine CMV strain Smith. Briefly: Murine CMV secondary assay, strain Smith, MEF cells. The class given is cell-based, Mouse Cytomegalovirus. Here is the method: (§4) Compounds that were positive in the CPE assay were confirmed in a similar assay in 96-well plates according to established laboratory protocols with the compounds added 1 h post infection […]. Additionally, 12 1:3 dilutions were done instead of 6 1:5 dilutions for added accuracy. Genome copy number was determined by qPCR using primers 5′-[…]-3′, 5′ […]-3′, and probe 5′-[…]-3′.

Data set [18] concerns MEF cells. Put plainly: Cytotoxicity concurrent with Murine CMV secondary assay. Type of data set: cell-based, mouse. Here is the method: as §4
In data set [19] the test system is VZV strain 15-6-001 resistant isolate. Briefly: microbe, parasite or virus in culture. Type of data set: cell-based, Varicella Zoster Virus. Conditions: Human alphaherpesvirus 3, HFF. Here is the method:
as §1, §2

Data set [20] can be described thus: Cytotoxicity concurrent with VZV 15-6-001 primary assay. Conditions: human, HFF cell line. Type of data set: cell-based. Here is the method:
as §1

Data set [21] has as its target CDK9/cyclin T1 (Homo sapiens (Human), UniProt P50750). Briefly: Kinase activity assay, CDK9/cyclin T1. Type of data set: biochemical. As to conditions: Table 3.1.1; 10 μM ATP; 10-dose duplicate, 3-fold serial dilution starting at 10 μM; read-out: Compound IC50 CDK9/cyclin T1.
A short description of data set [22]: Metabolic stability in mice liver microsomes. As to conditions: mouse, microsomes, 1 h. Here is the method: Potassium phosphate buffer (Kphos) was prepared by adding 0.647 g potassium phosphate monobasic (KH2PO4) and 3.527 g potassium phosphate dibasic (K2HPO4) to 400 mL of Milli-Q water. pH of the buffer was adjusted to 7.4 and volume was made up to 500 mL.
Stock solutions of the test compounds were prepared in DMSO at a concentration of 1 mM.
To this microsomal mix 1.42 μL (1 mM) of test compound and positive control were spiked, from this mix 70 μL was transferred to 96 well plate and pre-incubated at 37° C. for 5 min. […] The plates were centrifuged at 4000 RPM for 15 min and 100 μL aliquots were submitted for analysis by LC-MS/MS.
Samples were monitored for parent compound disappearance in MRM mode using LC-MS/MS. The LC-MS/MS conditions and MRM chromatogram will be provided as per client request.
The peak area ratios of analyte versus internal standard were used to calculate the % remaining at the end of 60 minutes in presence NADPH.
In general terms: Liver microsomes are vesicles of endoplasmic reticulum, rich in cytochrome P450 enzymes.

The mark [23] stands for this setting: Human alphaherpesvirus 3, VZV primary assay, strain Ellen, cell line HFF, read-out: EC50.
Where [24] appears, read: Human alphaherpesvirus 3, VZV primary assay, strain Ellen, cell line HFF, read-out: EC90.
The mark [25] stands for this setting: Human alphaherpesvirus 1, HSV1 primary assay, strain E-377, HFF cells, read-out: EC50.
Where [26] appears, read: Human alphaherpesvirus 1, HSV1 primary assay, strain E-377, HFF cells, read-out: EC90.
The mark [27] stands for this setting: Human alphaherpesvirus 2, HSV2 primary assay, strain G, HFF cells, read-out: EC50.
[28] abbreviates: Human alphaherpesvirus 2, HSV2 primary assay, strain G, HFF cells, read-out: EC90.
[29] abbreviates: Adenovirus primary assay, HFF cells, Adenoid75 strain, read-out: EC50.
Where [30] appears, read: Adenovirus primary assay, HFF cells, Adenoid75 strain.
[31] abbreviates: Human betaherpesvirus 5, AD169, HFF.
The mark [32] stands for this setting: human gammaherpesvirus 4, Akata.

Where two headings read alike, the source gives them in different places.

By EC50 is commonly meant the midpoint of the concentration-response curve. A word on the EC90: it is the point of the concentration-response curve where the effect stands at 90%.

Sequence of CDK9/cyclin T1 (P50750 whole entry): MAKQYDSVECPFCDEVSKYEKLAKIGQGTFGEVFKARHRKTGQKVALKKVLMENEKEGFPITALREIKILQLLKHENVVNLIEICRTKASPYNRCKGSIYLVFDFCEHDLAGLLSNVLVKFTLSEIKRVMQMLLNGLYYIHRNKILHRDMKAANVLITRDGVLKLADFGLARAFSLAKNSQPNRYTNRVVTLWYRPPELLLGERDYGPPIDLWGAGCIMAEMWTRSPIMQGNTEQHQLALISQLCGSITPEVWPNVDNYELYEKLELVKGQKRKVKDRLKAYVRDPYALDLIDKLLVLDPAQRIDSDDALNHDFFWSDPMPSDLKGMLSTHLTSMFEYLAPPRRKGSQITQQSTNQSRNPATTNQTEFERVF
Sequence of CDK9/cyclin T1 (O60563 whole entry partner): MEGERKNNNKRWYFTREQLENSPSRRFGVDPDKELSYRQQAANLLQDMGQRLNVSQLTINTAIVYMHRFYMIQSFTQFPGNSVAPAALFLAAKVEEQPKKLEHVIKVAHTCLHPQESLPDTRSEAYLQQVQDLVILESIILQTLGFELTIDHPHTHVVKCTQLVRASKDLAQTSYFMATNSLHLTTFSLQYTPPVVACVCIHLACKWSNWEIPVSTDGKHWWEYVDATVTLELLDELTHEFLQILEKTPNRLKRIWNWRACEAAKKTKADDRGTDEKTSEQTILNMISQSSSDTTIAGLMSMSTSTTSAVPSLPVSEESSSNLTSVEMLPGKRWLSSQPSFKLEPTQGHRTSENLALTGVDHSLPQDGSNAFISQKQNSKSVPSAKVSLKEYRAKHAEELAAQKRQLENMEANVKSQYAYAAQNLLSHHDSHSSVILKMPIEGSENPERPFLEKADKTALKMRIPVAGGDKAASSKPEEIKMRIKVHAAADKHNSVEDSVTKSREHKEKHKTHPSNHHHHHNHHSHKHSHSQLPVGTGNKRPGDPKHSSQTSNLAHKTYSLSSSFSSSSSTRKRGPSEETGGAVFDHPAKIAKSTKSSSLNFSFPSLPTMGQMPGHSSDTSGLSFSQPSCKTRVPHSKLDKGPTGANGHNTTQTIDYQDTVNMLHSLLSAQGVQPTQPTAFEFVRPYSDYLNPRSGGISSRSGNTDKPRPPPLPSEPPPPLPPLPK

As to `O=S1(=O)CCC(Nc2cc3c4ccc(F)cc4nn3cn2)CC1` [VKT-018], the EC50 was 50 µM in [1] (Human betaherpesvirus 5, HCMV primary assay, virus strain AD169, HFF cells, read-out: EC50); 50 µM in data set [3] (setting [23]); 50 µM in data set [5] (setting [25]); 50 µM in data set [7] (setting [27]); 45.7 µM in [9] (human gammaherpesvirus 4, Epstein-Barr primary assay, Akata strain, Akata cells, read-out: EC50); 3.69 µM in data set [10] (setting [29]). Also, the concentration for an effect of 90% (EC90) in data set [1] (Human betaherpesvirus 5, HCMV primary assay, virus strain AD169, HFF cells, read-out: EC90) came to 50 µM; in data set [3] (setting [24]) it was 50 µM; in [5] (setting [26]), 50 µM; in data set [7] (setting [28]), 50 µM; in [9] (human gammaherpesvirus 4, Epstein-Barr primary assay, Akata strain, Akata cells, read-out: EC90), 50 µM; in data set [10] (setting [30]) it was 50 µM. Further, in data set [12] (Adeno secondary assay, strain Adenoid75, HFF cells, read-out: EC90), the EC90 was determined as 16.4 µM. Also, the CC50 in [2] (CC50) amounted to 50 µM; in data set [4], 50 µM; in data set [6] it was 50 µM; in data set [8] it was 50 µM; in [11] it was 50 µM; in data set [13] (uninfected HFF cell monolayers) it was 97.1 µM. Also, in data set [14] (Akata cells without virus induction), the CC50 at 72 h turned out to be 50 µM.

In the case of `NC(=O)CN1CCC(Nc2cc3c4ccc(F)cc4nn3cn2)CC1` [VKT-026], the CC50 came out at 26.9 µM in data set [15] (human); 50 μ.M in [18]; 22 µM in [4]; 10 µM in data set [6]; 29.4 µM in [8]; 24.7 µM in data set [11]. Further, the concentration giving a half-maximal response (EC50) in data set [16] stood at 0.87 µM; in data set [17], 0.17 µM; in data set [3] (setting [23]) it was 10 µM; in [5] (setting [25]), 10 µM; in [7] (setting [27]) it was 10 µM; in data set [10] (setting [29]), 7.71 µM. Further, the concentration for an effect of 90% (EC90) in data set [16] is 10 µM; in data set [17], 5.38 µM; in data set [3] (setting [24]) it was 10 µM; in data set [5] (setting [26]) it was 10 µM; in [7] (setting [28]) it was 50 µM; in data set [10] (setting [30]) it was 50 µM.

For `OCC1CCC(Nc2cc3c4ccc(F)cc4nn3cn2)CC1` (centres unmarked) [VKT-029], the half-maximal effective concentration (EC50) was determined as 50 µM in [1] (setting [31]); 4.02 µM in data set [3] (Human alphaherpesvirus 3, HFF); 10 µM in data set [19]; 50 µM in data set [5] (Human alphaherpesvirus 1, HFF); 50 µM in [7] (Human alphaherpesvirus 2, HFF); 4.79 µM in [9] (setting [32]). In data set [10] (HFF), the response was half-maximal at 5.12 µM (EC50). Further, the concentration for an effect of 90% (EC90) in [1] (setting [31]) worked out at 50 µM; in data set [3] (Human alphaherpesvirus 3, HFF), 10 µM; in [19] it was 10 µM; in data set [5] (Human alphaherpesvirus 1, HFF), 50 µM; in data set [7] (Human alphaherpesvirus 2, HFF), 50 µM; in [9] (setting [32]), 12.1 µM. Besides, in data set [12] (HFF), the EC90 was determined as 3.91 µM. In addition, the CC50 came to 50 µM in data set [2] (HCMV primary assay, HFF cells, read-out: CC50); 45.1 µM in data set [4] (VZV Ellen primary assay, cell line HFF, read-out: CC50); 47.2 µM in [20]; 50 µM in data set [6] (HSV1 E-377 primary assay, HFF cells, read-out: CC50); 50 µM in data set [8] (HSV2 primary assay, HFF cells, read-out: CC50); 50 µM in [11] (Adenovirus primary assay, HFF cells, read-out: CC50). Besides, in data set [13], the CC50 came out at 100 µM. For the same compound, the CC50 at 72 h in [14] was determined as 50 µM.

Regarding `N[C@H]1CC[C@H](Nc2cc3c4ccc(F)cc4nn3cn2)CC1` [VKT-511, (1r,4r)-N1-(7-fluoropyrimido[1,6-b]indazol-3-yl)cyclohexane-1,4-diamine], the IC50 in [21] came to 0.0465 µM. The half-maximal effective concentration (EC50) in data set [1] (HCMV primary assay, virus strain AD169, HFF cells, read-out: EC50) was 2 µM. In addition, in [1] (HCMV primary assay, virus strain AD169, HFF cells, read-out: EC90), the 90% effect concentration (EC90) was 2 µM. Moreover, in data set [15], the CC50 is 6.98 µM. Besides, in data set [22], the “% Remaining at 60 min” value came to 107%.

The record behind these values is US20240309004A1, “SELECTIVE CYCLIN-DEPENDENT KINASE INHIBITORS AND METHODS OF THERAPEUTIC USE THEREOF” (ViroKyne Therapeutics, LLC, priority 2021, published 2024).
